“And” between values parts separate entries of the source, which are not always exact repeats. Equal entries are not always repeated.
How the values were obtained:
[1] = Plasma kinetics of ivermectin after subcutaneous injection of Ivomec to dogs; type: in vivo, dog; conditions: for Plasma concentrations of ivermectin, Mean / Plasma concentrations of ivermectin: Ivomec subcutaneous 400 μg.kg^−1, dogs
Protocol: This study was conducted in order to assess the pharmacokinetics of ivemectin in the dog after subcutaneous administration of Ivomec® at a dose of 400 μg.kg^−1 of ivermectin which is known to be effective on gastrointestinal nematodes and to have a route of reference for further development.
Five male Beagle dogs were injected a subcutaneous dose of 400 μg.kg^−1 of ivermectin. Blood samples were collected at intervals up to 56 days post-dosing. The determination of ivermectin in dog plasma was carried out by HPLC, using fluorescence detection after derivatization. The limit of quantification was 100 pg.ml^−1.

[2] = Plasma kinetics of ivermectin after oral administration of Cardomec to dogs; type: in vivo, dog
Protocol: Five male Beagle dogs received a dose of approximately 6 μg.kg^−1 of ivermectin, i.e., one 68 μg Cardomec® tablet per dog. The animals were fasted prior to administration and up to 6 hours after treatment to prevent a possible interaction with food.
Blood samples were collected at intervals up to 28 days post-dosing. The determination of ivermectin in dog plasma was carried out by HPLC using fluorescence detection after derivatization. The limit of quantification was 100 pg.ml^−1.

[3] = Ivomec subcutaneous, dose 400 pg.kg^−1 [sic], individual dogs
[4] = Cardomec oral 6 μg.kg^−1, 5 fasted dogs, mean
[5] = Cardomec oral 6 μg.kg^−1, 5 fasted dogs, range over dogs
[6] = Cardomec oral 6 μg.kg^−1, fasted dogs, individual dogs

ivermectin
Plasma concentrations of ivermectin, Mean ([1]; D 21, mean of 5 dogs): 0.694 ng/mL | Plasma concentrations of ivermectin ([1]; D 28, individual dogs): BLQ (The limit of quantification was 100 pg.ml^−1) (2×) and 190 pg.ml^−1 and 108 pg.ml^−1 and 119 pg.ml^−1 | Plasma concentrations of ivermectin, Mean ([1]; D 28, mean of 5 dogs (BLQ taken as 0)): BLQ (The limit of quantification was 100 pg.ml^−1) | Plasma concentrations of ivermectin ([1]; D 35, individual dogs): BLQ (The limit of quantification was 100 pg.ml^−1) | Plasma concentrations of ivermectin, Mean ([1]; D 35, mean of 5 dogs): BLQ (The limit of quantification was 100 pg.ml^−1) | tmax ([1]; Ivomec subcutaneous, 400 μg.kg^−1, individual dogs): 2 d (2×) and 4 d (2×) and 3 d | AUC(0-t) [1, 3]: 161141 pg·days/mL and 224572 pg·days/mL and 291636 pg·days/mL and 225830 pg·days/mL and 231319 pg·days/mL | AUC(0-∞) [1, 3]: 161690 pg·days/mL and 225452 pg·days/mL and 294236 pg·days/mL and 226283 pg·days/mL and 231824 pg·days/mL | Cmax [1, 3]: 26.256 ng/mL and 24.875 ng/mL and 41.257 ng/mL and 27.2 ng/mL and 25.089 ng/mL | t½ [1, 3]: 56.4 h and 77 h and 69.1 h and 69.8 h and 70.6 h | AUC(0-t), Mean [2, 4]: 1534 pg·days/mL | AUC(0-∞), Mean [2, 4]: 1859 pg·days/mL | AUC, mean [2, 4]: 44.604 ng·h/mL | Cmax, Mean [2, 4]: 1.362 ng/mL | AUC(0-t), Range [2, 5]: [187-3246] pg.d.ml^−1 | AUC(0-∞), Range [2, 5]: [382-3789] pg.d.ml^−1 | Plasma concentrations of ivermectin, Mean ([2]; Cardomec oral 6 μg.kg^−1, fasted dogs, 0 h, mean of 5 dogs): BLQ (Below the Limit of Quantification (100 pg.ml^−1)) | Plasma concentrations of ivermectin, Mean ([2]; Cardomec oral 6 μg.kg^−1, fasted dogs, 0.75 h, mean of 5 dogs (BLQ taken as 0)): 0.119 ng/mL | Plasma concentrations of ivermectin, Mean ([2]; Cardomec oral 6 μg.kg^−1, fasted dogs, 1.5 h, mean of 5 dogs (BLQ taken as 0)): 0.536 ng/mL | Plasma concentrations of ivermectin ([2]; Cardomec oral 6 μg.kg^−1, fasted dogs, 2 h, individual dogs): 1132 pg.ml^−1 and 674 pg.ml^−1 and BLQ (Below the Limit of Quantification (100 pg.ml^−1)) and 1817 pg.ml^−1 and 264 pg.ml^−1 | Plasma concentrations of ivermectin, Mean ([2]; Cardomec oral 6 μg.kg^−1, fasted dogs, 2 h, mean of 5 dogs (BLQ taken as 0)): 0.777 ng/mL | Plasma concentrations of ivermectin, Mean ([2]; Cardomec oral 6 μg.kg^−1, fasted dogs, 3 h, mean of 5 dogs): 1.199 ng/mL | Plasma concentrations of ivermectin, Mean ([2]; Cardomec oral 6 μg.kg^−1, fasted dogs, 4 h, mean of 5 dogs): 1.098 ng/mL | Plasma concentrations of ivermectin, Mean ([2]; Cardomec oral 6 μg.kg^−1, fasted dogs, 6 h, mean of 5 dogs): 0.956 ng/mL | Plasma concentrations of ivermectin, Mean ([2]; Cardomec oral 6 μg.kg^−1, fasted dogs, 8 h, mean of 5 dogs): 0.769 ng/mL | Plasma concentrations of ivermectin, Mean ([2]; Cardomec oral 6 μg.kg^−1, fasted dogs, 10 h, mean of 5 dogs): 0.798 ng/mL | Plasma concentrations of ivermectin, Mean ([2]; Cardomec oral 6 μg.kg^−1, fasted dogs, 12 h, mean of 5 dogs): 0.783 ng/mL | Plasma concentrations of ivermectin, Mean ([2]; Cardomec oral 6 μg.kg^−1, fasted dogs, 24 h, mean of 5 dogs): 0.525 ng/mL | Plasma concentrations of ivermectin, Mean ([2]; Cardomec oral 6 μg.kg^−1, fasted dogs, 32 h, mean of 5 dogs (BLQ taken as 0)): 0.338 ng/mL | Plasma concentrations of ivermectin, Mean ([2]; Cardomec oral 6 μg.kg^−1, fasted dogs, D 2, mean of 5 dogs (ND included as BLQ = 0)): 0.268 ng/mL | Plasma concentrations of ivermectin, Mean ([2]; Cardomec oral 6 μg.kg^−1, fasted dogs, D 3, mean of 5 dogs (ND included as BLQ = 0)): 0.173 ng/mL | Plasma concentrations of ivermectin, Mean ([2]; Cardomec oral 6 μg.kg^−1, fasted dogs, D 4, mean of 5 dogs (ND, BLQ taken as 0)): 0.108 ng/mL | Plasma concentrations of ivermectin, Mean ([2]; Cardomec oral 6 μg.kg^−1, fasted dogs, D 5, mean of 5 dogs, one value above the limit of quantification): BLQ* (Below the Limit of Quantification (100 pg.ml^−1)) | Plasma concentrations of ivermectin, Mean ([2]; Cardomec oral 6 μg.kg^−1, fasted dogs, D 7, mean of 5 dogs, one value above the limit of quantification): BLQ* (Below the Limit of Quantification (100 pg.ml^−1)) | Plasma concentrations of ivermectin, Mean ([2]; Cardomec oral 6 μg.kg^−1, fasted dogs, D 9, mean of 5 dogs): BLQ (Below the Limit of Quantification (100 pg.ml^−1)) | Plasma concentrations of ivermectin, Mean ([2]; Cardomec oral 6 μg.kg^−1, fasted dogs, D 14, mean of 5 dogs): BLQ (Below the Limit of Quantification (100 pg.ml^−1)) | Plasma concentrations of ivermectin, Mean ([2]; Cardomec oral 6 μg.kg^−1, fasted dogs, D 21, mean of 5 dogs): BLQ (Below the Limit of Quantification (100 pg.ml^−1)) | AUC(0-t) [2, 6]: 3246 pg·days/mL and 1545 pg·days/mL and 743 pg·days/mL and 1949 pg·days/mL and 187 pg·days/mL | AUC(0-∞) [2, 6]: 3789 pg·days/mL and 1813 pg·days/mL and 1027 pg·days/mL and 2282 pg·days/mL and 382 pg·days/mL | Cmax [2, 6]: 2.964 ng/mL and 0.911 ng/mL and 0.557 ng/mL and 1.955 ng/mL and 0.422 ng/mL | tmax [2, 6]: 3 h (2×) and 12 h (2×) and 4 h | t½ [2, 6]: 64.5 h and 33.5 h and 37.5 h and 39.2 h and 26.0 h and 64.6 h and 33.6 h and 37.4 h and 39.1 h and 25.9 h
